Laboratory results published in PMC6270063, “Novel Antimicrobial Peptide Dendrimers with Amphiphilic Surface and Their Interactions with Phospholipids — Insights from Mass Spectrometry” (Molecules, 2013).
Values after ≈ are worked out from the molar mass of the structure shown. Read-outs that look alike come from different tables or passages of the source.

Columns and labels:
[1] = system: S. aureus ATCC 25923; experiment: microbe, parasite or virus in culture
Description: (§1) The bacteria Staphylococcus aureus ATCC 25923, Staphylococcus aureus ATCC 43300,Escherichia coli ATCC 25922 and Pseudomonas aeruginosa ATCC 27853 were cultivated on tryptone-soy agar (TSA; Oxoid) for 24 h at 37 °C. Broth microdilution susceptibility tests were performed as described in the Committee Laboratory Standards (CLSI) reference method M07-A8 [41]. Bacteria inocula (5 µL) containing 10^6 CFU/mL were used. The final concentration of dendrimers ranged from 256 to 2 µg/mL, polymyxin B and penicillin G from 8 to 0,15 µg/mL (or 5.8 to 0.1 µM and 21.5 to 0.4 µM, respectively for polymyxin B and penicillin G) were the reference compounds. The plates were incubated at 35 °C and were read after 18 or 24 h depending on the bacterial strain. Minimal Inhibitory Concentrations (MICs) were defined as the lowest drug concentration that reduced the growth by 100%.

[2] = system: P. aeruginosa ATCC 27853
Description: as §1

[3] = system: S. aureus ATCC 43300
Description: as §1

[4] = system: E. coli ATCC 25922
Description: as §1

[5] = system: human red blood cells; experiment: Hemolysis assay; type: cell-based; settings: 1% hematocrit in PBS pH 7.4, 30 min at 23 °C, from Figure 4
Description: Dendrimer-induced hemolysis was measured as previously reported. Briefly, human red blood cells obtained from healthy volunteers, were suspended in phosphate buffered saline (PBS, pH 7.4). Prepared suspension of 1% hematocrit was incubated with serial concentration of dendrimers for 30 min at 23 °C. After centrifugation (4,000 rpm, 5 min) the absorbance of supernatant was measured at 540 nm (Spectrostar Omega, BMG Labtech, Ortenberg, Germany). A value of 100% hemolysis was determined by incubation of erythrocytes with double-distilled water (30 min at 23 °C). In a control experiment, cells were incubated in buffer without peptide and absorbance at 540 nm value was used as a blank:
A: Absorbance of the samples incubated with dendrimers;
Ab: Absorbance of the blank samples;
A100%: Absorbance of the reference;
Ac: Absorbance of red blood cells in PBS, hematocrit 1%.

[6] = system: E. coli ATCC 25922; type: cell-based, Escherichia coli; settings: for Activity (MIC) at 200 µM Na+ or K+ concentration / Change of bioactivity on increase of Ca2+ and Mg2+ concentration / Sensitivity of MIC to increase of Na+ or K+ concentration: E. coli ATCC 25922; for Activity (MIC) at 200 µM Na+ or K+ concentration / Sensitivity of MIC to increase of Na+ or K+ concentration: triplicate; for Change of bioactivity on increase of Ca2+ and Mg2+ concentration: Ca2+ and Mg2+ up to 5 mM; for Sensitivity of MIC to increase of Na+ or K+ concentration: Na+ or K+ up to 100 µM, CAMHB with added NaCl or KCl
Description: as §1
The effect of salt concentration on the antimicrobial activity of two dendrimers was tested by determining the MICs under a variety of cations concentrations. CAMHB used in the assay was altered by the addition of salt. NaCl or KCl were added to the media to a final concentrations of 10, 50, 100, 200, 500 mM, wheareas CaCl2 or MgCl2 were added to the media to a final concentrations of 0.5, 1.5, 2.5, 5.5, 10.5, and 20.5 mM. Additionally, similar test was performed using MHB (without Ca^2+, Mg^2+) for divalent cations Ca^2+ and Mg^2+. Experiment was performed in triplicate.

[7] = broth microdilution CLSI M07-A8, CAMHB with 0.5 mM Ca2+ and Mg2+, no K+ and Na+, 35 °C, read after 18 or 24 h, MIC = lowest concentration reducing growth by 100%
[8] = broth microdilution CLSI M07-A8, CAMHB with 0.5 mM Ca2+ and Mg2+, 35 °C, 18 or 24 h
[9] = methicillin-resistant strain, broth microdilution CLSI M07-A8, CAMHB with 0.5 mM Ca2+ and Mg2+, 35 °C, 18 or 24 h

In the case of `NCCCC[C@H](NC(=O)OCc1ccccc1Cl)C(=O)NCCNC(=O)CCN(CCC[C@@H](C(=O)Nc1cccnc1)N(CCC(=O)NCCNC(=O)[C@H](CCCCN)NC(=O)OCc1ccccc1Cl)CCC(=O)NCCNC(=O)[C@H](CCCCN)NC(=O)OCc1ccccc1Cl)CCC(=O)NCCNC(=O)[C@H](CCCCN)NC(=O)OCc1ccccc1Cl` [Dendrimer 3a], the “Minimal inhibitory concentration (MIC), S. aureus ATCC 25923” value [1, 7] is reported as 2.85 µM (≈ 5.28 µg/mL), the “Minimal inhibitory concentration (MIC), P. aeruginosa ATCC 27853” value [2, 8] is reported as >252 µM and the “Minimal inhibitory concentration (MIC), S. aureus ATCC 43300” value [3, 9] is reported as >252 µM. For the same molecule, the “Minimal inhibitory concentration (MIC), E. coli ATCC 25922” value [4, 8] was >252 µM and the “Hemotoxicity (level)” value [5] was “much lower toxicity and low”.

For `NCCCC[C@H](NC(=O)OCc1ccccc1Cl)C(=O)NCCNC(=O)CCN(CCC[C@@H](C(=O)NCCc1c[nH]c2ccccc12)N(CCC(=O)NCCNC(=O)[C@H](CCCCN)NC(=O)OCc1ccccc1Cl)CCC(=O)NCCNC(=O)[C@H](CCCCN)NC(=O)OCc1ccccc1Cl)CCC(=O)NCCNC(=O)[C@H](CCCCN)NC(=O)OCc1ccccc1Cl` [Dendrimer 3b], the “Minimal inhibitory concentration (MIC), S. aureus ATCC 25923” value [1, 7] was 1.87 µM (≈ 3.59 µg/mL), the “Minimal inhibitory concentration (MIC), P. aeruginosa ATCC 27853” value [2, 8] was 51 µM (≈ 97.8 µg/mL) and the “Minimal inhibitory concentration (MIC), S. aureus ATCC 43300” value [3, 9] was 12.1 µM (≈ 23.2 µg/mL). The “Minimal inhibitory concentration (MIC), E. coli ATCC 25922” value [4, 8] was 12.1 µM (≈ 23.2 µg/mL), the “MIC in presence of Ca2+” value ([6]; ATCC 25922, 24 h) was 119.8 µM and the “Activity (MIC) at 200 µM Na+ or K+ concentration” value [6] was “retained much activity”. The “Change of bioactivity on increase of Ca2+ and Mg2+ concentration” value [6] was “slow decrease” and the “Sensitivity of MIC to increase of Na+ or K+ concentration” value [6] was “not sensitive”.

`NCCCC[C@H](NC(=O)OCc1ccccc1Cl)C(=O)NCCNC(=O)CCN(CCC[C@@H](C(=O)NCCc1cnc[nH]1)N(CCC(=O)NCCNC(=O)[C@H](CCCCN)NC(=O)OCc1ccccc1Cl)CCC(=O)NCCNC(=O)[C@H](CCCCN)NC(=O)OCc1ccccc1Cl)CCC(=O)NCCNC(=O)[C@H](CCCCN)NC(=O)OCc1ccccc1Cl` [Dendrimer 3c] was tested, and the “Minimal inhibitory concentration (MIC), S. aureus ATCC 25923” value ([1]; ATCC 25923, 24 h) was 24.7 µM (≈ 46.2 µg/mL), the “Minimal inhibitory concentration (MIC), P. aeruginosa ATCC 27853” value ([2]; ATCC 27853, 24 h) was 141 µM (≈ 264 µg/mL) and the “Minimal inhibitory concentration (MIC), S. aureus ATCC 43300” value ([3]; ATCC 43300, 24 h) was 141 µM (≈ 264 µg/mL). The “Minimal inhibitory concentration (MIC), E. coli ATCC 25922” value ([4]; ATCC 25922, 24 h) was 141 µM (≈ 264 µg/mL).

`CCCCCCCCCCCCNC(=O)[C@H](CCCN(CCC(=O)NCCNC(=O)[C@H](CCCCN)NC(=O)OCc1ccccc1Cl)CCC(=O)NCCNC(=O)[C@H](CCCCN)NC(=O)OCc1ccccc1Cl)N(CCC(=O)NCCNC(=O)[C@H](CCCCN)NC(=O)OCc1ccccc1Cl)CCC(=O)NCCNC(=O)[C@H](CCCCN)NC(=O)OCc1ccccc1Cl` [Dendrimer 3d] was tested, and the “Minimal inhibitory concentration (MIC), S. aureus ATCC 25923” value ([1]; ATCC 25923, 24 h) was 1.85 µM (≈ 3.59 µg/mL) and the “Minimal inhibitory concentration (MIC), E. coli ATCC 25922” value ([4]; ATCC 25922, 24 h) was 1.85 µM (≈ 3.59 µg/mL).

For `N[C@@H](CCCCNC(=O)OCc1ccccc1Cl)C(=O)NCCNC(=O)CCN(CCC[C@@H](C(=O)Nc1cccnc1)N(CCC(=O)NCCNC(=O)[C@@H](N)CCCCNC(=O)OCc1ccccc1Cl)CCC(=O)NCCNC(=O)[C@@H](N)CCCCNC(=O)OCc1ccccc1Cl)CCC(=O)NCCNC(=O)[C@@H](N)CCCCNC(=O)OCc1ccccc1Cl` [Dendrimer 3e], the “Minimal inhibitory concentration (MIC), S. aureus ATCC 25923” value [1, 7] was 16.6 µM (≈ 30.7 µg/mL), the “Minimal inhibitory concentration (MIC), P. aeruginosa ATCC 27853” value [2, 8] was 142 µM (≈ 263 µg/mL) and the “Minimal inhibitory concentration (MIC), S. aureus ATCC 43300” value [3, 9] was 142 µM (≈ 263 µg/mL). For the same molecule, the “Minimal inhibitory concentration (MIC), E. coli ATCC 25922” value [4, 8] was 142 µM (≈ 263 µg/mL) and the “Hemotoxicity (level)” value [5] was “highest hemotoxicity and high”.

For `N[C@@H](CCCCNC(=O)OCc1ccccc1Cl)C(=O)NCCNC(=O)CCN(CCC[C@@H](C(=O)NCCc1c[nH]c2ccccc12)N(CCC(=O)NCCNC(=O)[C@@H](N)CCCCNC(=O)OCc1ccccc1Cl)CCC(=O)NCCNC(=O)[C@@H](N)CCCCNC(=O)OCc1ccccc1Cl)CCC(=O)NCCNC(=O)[C@@H](N)CCCCNC(=O)OCc1ccccc1Cl` [Dendrimer 3f], the “Minimal inhibitory concentration (MIC), S. aureus ATCC 25923” value [1, 7] was 0.93 µM (≈ 1.78 µg/mL), the “Minimal inhibitory concentration (MIC), P. aeruginosa ATCC 27853” value [2, 8] was 60 µM (≈ 115 µg/mL) and the “Minimal inhibitory concentration (MIC), S. aureus ATCC 43300” value [3, 9] was 20.4 µM (≈ 39.1 µg/mL). The “Minimal inhibitory concentration (MIC), E. coli ATCC 25922” value [4, 8] was 7.9 µM (≈ 15.2 µg/mL), the “MIC in presence of Mg2+” value ([6]; ATCC 25922, 24 h) was 119.8 µM and the “Activity (MIC) at 200 µM Na+ or K+ concentration” value [6] was “retained much activity”. The “Change of bioactivity on increase of Ca2+ and Mg2+ concentration” value [6] was “slow decrease” and the “Sensitivity of MIC to increase of Na+ or K+ concentration” value [6] was “not sensitive”.

With `N[C@@H](CCCCNC(=O)OCc1ccccc1Cl)C(=O)NCCNC(=O)CCN(CCC[C@@H](C(=O)NCCc1cnc[nH]1)N(CCC(=O)NCCNC(=O)[C@@H](N)CCCCNC(=O)OCc1ccccc1Cl)CCC(=O)NCCNC(=O)[C@@H](N)CCCCNC(=O)OCc1ccccc1Cl)CCC(=O)NCCNC(=O)[C@@H](N)CCCCNC(=O)OCc1ccccc1Cl` [Dendrimer 3g] the “Minimal inhibitory concentration (MIC), S. aureus ATCC 25923” value ([1]; ATCC 25923, 24 h) was 51 µM (≈ 95.3 µg/mL), the “Minimal inhibitory concentration (MIC), P. aeruginosa ATCC 27853” value ([2]; ATCC 27853, 24 h) was 211 µM (≈ 394 µg/mL) and the “Minimal inhibitory concentration (MIC), S. aureus ATCC 43300” value ([3]; ATCC 43300, 24 h) was 16.4 µM (≈ 30.7 µg/mL). For the same molecule, the “Minimal inhibitory concentration (MIC), E. coli ATCC 25922” value ([4]; ATCC 25922, 24 h) was 211 µM (≈ 394 µg/mL).

`CCCCCCCCCCCCNC(=O)[C@H](CCCN(CCC(=O)NCCNC(=O)[C@@H](N)CCCCNC(=O)OCc1ccccc1Cl)CCC(=O)NCCNC(=O)[C@@H](N)CCCCNC(=O)OCc1ccccc1Cl)N(CCC(=O)NCCNC(=O)[C@@H](N)CCCCNC(=O)OCc1ccccc1Cl)CCC(=O)NCCNC(=O)[C@@H](N)CCCCNC(=O)OCc1ccccc1Cl` [Dendrimer 3h] was tested, and the “Minimal inhibitory concentration (MIC), S. aureus ATCC 25923” value ([1]; ATCC 25923, 24 h) was 3.7 µM (≈ 7.19 µg/mL), the “Minimal inhibitory concentration (MIC), P. aeruginosa ATCC 27853” value ([2]; ATCC 27853, 24 h) was 32 µM (≈ 62.2 µg/mL) and the “Minimal inhibitory concentration (MIC), S. aureus ATCC 43300” value ([3]; ATCC 43300, 24 h) was 1.85 µM (≈ 3.59 µg/mL). The “Minimal inhibitory concentration (MIC), E. coli ATCC 25922” value ([4]; ATCC 25922, 24 h) was 7.9 µM (≈ 15.4 µg/mL).

`CC1(C)S[C@@H]2[C@H](NC(=O)Cc3ccccc3)C(=O)N2[C@H]1C(=O)O` [Penicillin G, reference compound] was tested, and the MIC ([1]; Staphylococcus aureus, ATCC25923, read-out: Minimal inhibitory concentration (MIC), S. aureus ATCC 25923) was 6.6 µM (≈ 2.21 µg/mL).
